In US20250064768A1, “METHODS AND COMPOSITIONS FOR TREATING AGING AND CHRONIC DISEASE” (priority 2021, published 2025):

Legend:
[1] = human, in vivo; cited from earlier work
[2] = in vivo; cited from earlier work
[3] = mouse, in vivo
Procedure: The clinical development of trans-crocetin has been problematic because its oxygen diffusion enhancing effect is transient, due to two key factors. Poor solubility: trans-crocetinate monovalent metal salts such as TSC, as free drugs were designed presumably to overcome the solubility issue associated with crocetin (free acid). Short half-life: TSC half-life is approximately 30 minutes, which in a clinical setting leads to transient effect on oxygen diffusion enhancement.

mouse model of sepsis = details: in vitro results and mouse model of sepsis
HUVECs = experiment: Reoxygenation of hypoxic HUVECs (flow cytometry, BioTracker 520 green hypoxia dye); format: cell-based; details: HUVECs under hypoxia (1%)
Procedure: The % P02 was assessed based on the readout of the BioTracker 520 green hypoxia dye. (FIG. 1G) Quantification of % P02 based on the flow cytometric data. (FIG. 1H) Quantification of % P02 based on the flow cytometric data of HUVECs incubated with 120 μg/mL LEAF-4L121 over time and (FIG. 11) as a function of various concentrations of LEAF-4L121 at 24 h.
In vitro, we first sought to evaluate the reoxygenation properties of LEAF-4L121 in endothelial cells (HUVECs). The IC50 of LEAF-4L121 in HUVECs was determined after 72 h of treatment by viability assays (CellTiter-Glo, Promega). […] We next incubated HUVECs in hypoxic conditions (1% P02) for 24 h before treatment with either free TC or various concentrations of LEAF-4L121. […] This rapid oxygenation effect of LEAF-4L121 is likely attributed to a biphasic release of TC from the liposomes that includes an initial fast release (approx. 25% in the first 6 h) of some of the payload followed by a more sustained release of TC from the liposomes over a prolonged period.

[4] = Phase 2 clinical study of liposomal trans-crocetin: pharmacokinetics; details: across different dosing regimens

| SMILES | safety in clinical trials [1] | half-life [2] | half-life (t½) [3] | reoxygenation activity (mouse model of sepsis) | reoxygenation, PO2 (HUVECs; 30 min post-treatment, 5 μg/mL TC) | reoxygenation, PO2 (HUVECs; 3 h after treatment) [% P02] | AUC and Cmax versus body weight [4] |
| --- | --- | --- | --- | --- | --- | --- | --- |
| CC(/C=C/C=C(\C)C(=O)[O-])=C\C=C\C=C(C)\C=C\C=C(/C)C(=O)[O-].[Na+].[Na+] [TSC, trans sodium crocetinate] | no safety concerns | approximately 30 minutes | half an hour | – | – | – | – |
| CC(/C=C/C=C(\C)C(=O)O)=C\C=C\C=C(C)\C=C\C=C(/C)C(=O)O [TC, trans-crocetin] | – | – | – | demonstrated the reoxygenation activity | up to 15 % PO2 | 5 | stable levels of AUC and Cmax across a wide range of body weights |
